Laboratory results as given in publication PMC7581722, “Tolerogenic Immunomodulation by PEGylated Antigenic Peptides” (Frontiers in Immunology, 2020).

How the values were obtained:
OVA-TCR+ CD4+ T cells [1] = test: Frequency of OVA-TCR+ CD4+ cells among total CD4+ splenocytes (deletion); type: in vivo, BALB/c mice; settings: 5 µg i.v. or equimolar, day 6; compared to PBS (PEG20 also to pOVA); n = 5-11
Method: (§1) On day 0, 5 × 10^6 CFSE-labeled CD4^+ cells from DO11.10 were adoptively transferred intravenously (i.v.) into syngeneic BALB/c mice. After 24 hours, mice were treated by a single i.v. injection of PBS (control), unconjugated pOVA or equimolar amounts of PEG-conjugated pOVA as indicated. In some experiments, mice were also treated with unconjugated pOVA + 50 µg of lipopolysaccharide (LPS) or pOVA-PEG + 50 µg of LPS. On day 7, splenocytes were isolated, and OVA-TCR^+ CD4^+ T cells were identified by an anti-KJ1.26 antibody, recognizing the OVA-specific TCR on transferred DO11.10 cells.
Besides Treg expansion/induction and anergy, deletion of antigen-specific T effector cells by activation-induced cell death also dampens the immune response. […] Thus, vaccination with this conjugate is more efficient in triggering activation-induced death compared to native peptide or pOVA-PEG-tetramer vaccination where some death might outbalance induced proliferation.
Figure 8 Administration of pOVA-PEG20 reduces the frequency of OVA-TCR^+ CD4^+ T cells among total CD4^+ splenocytes. OVA-specific CD4^+ cells were transferred into BALB/c mice. After 24 h, mice received i.v. PBS (control), 5 µg of pOVA or equimolar amounts of pOVA-PEG conjugates. After 6 days, the frequency of OVA-TCR^+ CD4^+ cells among total CD4^+ T cells was assessed using flow cytometry. […]

OVA-specific Th1 cells = test: Adoptive transfer of in vitro generated antigen-specific Th1 cells; type: in vivo; settings: 5 µg i.v. or equimolar, 24 h after Th1 transfer, CFSE, n = 6
Method: CD4^+ T cells were isolated from DO11.10 mice via MACS-sorting as above and co-cultured 1:3 with APCs (CD4^- CD90^-) (final concentration: 2 x 10^6 cells/ml). Cells were incubated with 1 µg/ml of pOVA, IFN-γ (20 ng/ml) (R&D Systems, McKinley, USA), IL12 (5 ng/ml) (R&D), and anti-IL4-antibody (11B11, produced in house) (5 µg/ml). After 6 days, cells were harvested, and IFN-γ expression was assessed via flow cytometry.
5 × 10^6 purified polarized CFSE-labeled Th1 cells from DO11.10 mice were adoptively transferred i.v. into BALB/c mice. After 24 h, mice were treated by a single i.v. injection of PBS (control), unconjugated pOVA at a dose of 5 µg per mouse or equimolar amounts of PEGylated pOVA. On day 5, splenocytes were isolated, and OVA-specific Th1 cells were identified by an anti-KJ1.26 antibody.
To analyze these questions, in vitro generated OVA-specific Th1 effector cells ( Supplementary Figure 5 ) were transferred into BALB/c mice prior to peptide vaccination. Proliferation and expression of IFN-γ and Foxp3 were assessed on day 5.
Figure 9 pOVA-PEG20 vaccination in presence of pre-existing T effector cells. […] After four days, splenocytes were re-isolated and proliferation, IFN-γ and TNF production as well as Foxp3 expression was assessed using flow cytometry. […] (E, F) Absolute number of antigen-specific IFNγ or Foxp3^+ cells expressed as % of total CD4^+. […]

OVA-TCR+ CD4+ T cells [2] = test: Analysis of bioavailability: vaccination 3 days before transfer of CFSE-labeled OVA-specific CD4+ cells; parameters: species or system BALB/c mice; settings: mouse, in vivo, iv
Method: To test for the presence of bioactive material in the organism after an extended period of time (bioavailability), recipients were treated with pOVA or equimolar amounts of PEGylated peptides 3 days before transfer of CFSE-labeled OVA-specific CD4^+ cells. Proliferation was assessed 6 days after CD4^+ T cell transfer by dilution of CFSE intensity using flow cytometry.
We next addressed the question whether PEGylation leads to an extended half-life (bioavailability) of the antigenic peptide in the organism and whether size and structure of the PEG molecule matter. For this, we tested the degree of proliferation after vaccination with a single i.v. injection of pOVA or conjugates at 3 days prior to transfer of OVA-specific T cells ( Figure 3A ). Six days after cell transfer, splenocytes were isolated and proliferation of OVA-TCR^+ CD4^+ T cells was analyzed according to CFSE content.
Figure 3 Conjugation of pOVA to the macromolecular carrier PEG extends peptide bioavailability. (A) Set-up for analysis of the bioavailability. (B) OVA-specific CD4^+ CFSE-labeled T cells were transferred into BALB/c mice three days after i.v. peptide vaccination with unconjugated pOVA or equimolar amounts of pOVA-PEG conjugates. After 6 days proliferation was assessed by flow cytometry. Cells from spleen and pLN were gated on OVA-TCR^+ CD4^+ T cells. […]

OVA-TCR+ CD4+ cells = test: Adoptive transfer with additional LPS (inflammatory conditions); type: in vivo, BALB/c mice; settings: 5 µg i.v. or equimolar + 50 µg LPS, 6 days
Method: as §1
To investigate the impact of inflammatory conditions, we analyzed the effect of lipopolysaccharide (LPS) application on the response of transferred unmanipulated OVA-TCR^+ CD4^+ cells.
24 h after adoptive transfer of OVA-specific CD4^+ T cells, recipients received i.v. PBS (control), 5 µg of pOVA or equimolar amounts of pOVA-PEG conjugates with or without additional LPS. After 6 days, splenocytes were isolated and Foxp3 expression as well as TNF production was assessed by flow cytometry. (A) % TNF^+ cells gated on OVA-specific CD4^+ cells, mean ± SD of data from three independent experiments. (B) % KJ1.26^+ (OVA-specific) splenocytes among total CD4^+ population; mean ± SD of pooled data from three independent experiments. […]

[3] = tested on: Th1-driven DTH footpad swelling; test: Delayed-type hypersensitivity (DTH) model, footpad swelling; type: in vivo, BALB/c mice; settings: 5 µg i.v. or equimolar; Th1 transfer day 7; footpad challenge pOVA/IFA; 8 days; n = 15
Method: pOVA-specific CD4^+ cells were adoptively transferred into BALB/c mice, which were treated i.v. with PBS (control), 5 μg of pOVA or equimolar amounts of pOVA-PEG20 24 h later (tolerization). To induce the effector phase, in vitro generated pOVA-specific Th1 cells were transferred into the recipients on day 7. After 24 h, pOVA in IFA or PBS/IFA were injected into the left or right hind footpad, respectively. Footpad swelling was monitored for 8 consecutive days and expressed as Δ footpad thickness.
To investigate whether pOVA-PEG20 is able to prevent the development of an inflammatory reaction in vivo, we used a DTH model based on the transfer of pre-formed Th1 cells, intra-footpad challenge with pOVA and measurement of footpad swelling for 8 days. […] As discussed below, a clearer superiority of PEGylated peptide over native peptide in tolerance induction was found in a more physiological EAE-model studied in parallel ([35]).
OVA-specific CD4^+ cells were adoptively transferred into BALB/c mice, which were treated i.v. with PBS (control), 5 μg of pOVA or equimolar amounts of pOVA-PEG20 24 h later. On day 7, in vitro generated OVA-specific Th1 cells were transferred into the recipients. […] The difference in footpad thickness after challenge was monitored for eight consecutive days. […]

[4] = tested on: Foxp3+ regulatory T cells among OVA-TCR+ CD4+ T cells; test: Adoptive transfer: Foxp3 expression of OVA-TCR+ CD4+ splenocytes after vaccination; type: in vivo, BALB/c mice
Method: Cell fixation, permeabilization, and intracellular Foxp3 staining were performed using the eFluor450 anti-mouse Foxp3 (eBioscience) staining set according to manufacturer’s instructions.
On day 0, 5 × 10^6 CFSE-labeled CD4^+ cells from DO11.10 were adoptively transferred intravenously (i.v.) into syngeneic BALB/c mice. After 24 hours, mice were treated by a single i.v. injection of PBS (control), unconjugated pOVA or equimolar amounts of PEG-conjugated pOVA as indicated. […] On day 7, splenocytes were isolated, and OVA-TCR^+ CD4^+ T cells were identified by an anti-KJ1.26 antibody, recognizing the OVA-specific TCR on transferred DO11.10 cells.
To assess the immunomodulatory effect of administration of different types of PEGylated pOVA, we analyzed the expression of Foxp3, the master transcription factor of Tregs and the cytokine profile of antigen-specific T cells upon vaccination.
CFSE-labeled CD4^+ cells from DO11.10 mice were transferred into BALB/c mice. After 24 h, mice received either PBS (control), indicated doses of pOVA or equimolar amounts of PEGylated peptides. After 6 days, Foxp3 expression was assessed using flow cytometry. Spleen cells were gated on OVA-TCR^+ CD4^+ T cells. (A) Representative FACS dot plots of Foxp3 expression following tolerization with pOVA or pOVA-PEG conjugates at a dose of 5 µg (based on peptide amount). (B) Dose response curve in vivo. […]

[5] = tested on: Foxp3+ Tregs among OVA-TCR+ CD4+ cells; test: Adoptive transfer of Treg-depleted CD4+ cells: de novo induction of Foxp3+ Tregs; type: in vivo, BALB/c mice; settings: 5 µg i.v. or equimolar, 6 days; spleen, pLN, mLN, livLN; n = 3-7
Method: To investigate whether Tregs are expanded or induced de novo, purified CFSE-labeled CD4^+ CD25^- CD103^- T cells from DO11.10 mice were adoptively transferred i.v. into BALB/c mice. After 24 h, mice were treated by a single i.v. injection of PBS (control), unconjugated pOVA at a dose of 5 µg per mouse or equimolar amounts of PEGylated pOVA. On day 7, different lymphatic organs were isolated and OVA-specific CD4^+ T cells were identified by an anti-KJ1.26 antibody.
To investigate whether the increase of Treg frequency following pOVA-PEG20 treatment is due to de novo induction or to expansion of pre-existing Tregs, we transferred Treg-depleted OVA-specific CD4^+ T cells prior to vaccination with pOVA or pOVA-PEG20. […] The frequency of Foxp3^+ Tregs reached similar levels following pOVA and pOVA-PEG20 administration in both spleen and pLN, whereas pOVA-PEG20 increased the Treg frequency in mLN (trend) and the livLN (significant) compared to pOVA.
Figure 5 Administration of pOVA-PEG20 leads to de novo induction of Foxp3^+ Tregs. Treg-depleted CD4^+ T cells from DO11.10 mice were transferred into BALB/c mice 24 h prior to treatment with PBS (control), 5 µg of pOVA or equimolar amounts of pOVA-PEG20. Six days post peptide vaccination, spleen, pLN, mLN and livLN were isolated and Foxp3 expression was analyzed using flow cytometry. […]

[6] = tested on: TNF-producing OVA-TCR+ CD4+ T cells; type: in vivo

## ISQAVHAAHAEINEAGR [pOVA]
OVA-TCR+ CD4+ T cells [1]
  Frequency of OVA-specific (OVA-TCR+ CD4+) cells among host CD4+ splenocytes: not reducing
OVA-specific Th1 cells
  Proliferative response of transferred Th1 cells: moderate proliferative response
OVA-TCR+ CD4+ T cells [2]
  T cell proliferation when vaccinated 3 days prior to T cell transfer (bioavailability): Little T cell proliferation
OVA-TCR+ CD4+ cells
  Increase in Foxp3+ cells upon vaccination in presence of LPS: completely suppressed
[3]
  Tolerance in Th1-driven DTH model (Δ footpad thickness): partial tolerance
[4]; 5 µg i.v. (based on peptide amount), 6 days after treatment, single representative plot
  Foxp3+ among OVA-TCR+ CD4+ splenocytes, representative FACS dot plot (Fig. 4A gate number): 24.7%
[4]; 5 µg i.v. or equimolar, pOVA, PEG40, tetramer compared to PBS, PEG20 compared to pOVA
  Frequency of splenic OVA-specific Foxp3+ regulatory T cells (in words): significant increase
[5]
  De novo induction of Foxp3+ Tregs from Treg-depleted CD4+ cells: able to induce Foxp3^+ Tregs in all organs analyzed
[6]; 5 µg i.v. or equimolar, 6 days, spleen, gated on OVA-TCR+ CD4+ cells, n = 5-8
  Mean ratio % TNF+/% Foxp3+ cells (effector cell/Treg ratio): 2.23
[6]; 5 µg in vivo (based on peptide amount), day 7, lower pair of plots
  IL-10 staining of OVA-specific cells after restimulation, representative plot gate number (Suppl. Fig. 3): 0.58
